# Literature values, collected in publication PMC12580894 (Cancer Research Communications, 2025).
# Columns and labels:
# [1] = system: untreated advanced urothelial carcinoma
# [2] = system: patients with advanced solid tumours; conditions: berzosertib with cisplatin
structure (smiles),measurement,setting,value
CNCc1ccc(-c2cc(-c3nc(-c4ccc(S(=O)(=O)C(C)C)cc4)cnc3N)on2)cc1 [berzosertib],Hematologic toxicity rates,[1]; GC plus berzosertib versus GC alone,higher
same,clinical benefit upon the addition of berzosertib,[1]; gemcitabine and cisplatin (GC) with or without berzosertib,no clinical benefit
same,patients with a confirmed PR,"[2]; despite prior platinum exposure, 31 patients",Two
same,most common AEs,[2]; phase I,hematologic in nature
same,DLTs observed,"[2]; phase I, 31 patients",a grade 3 hypersensitivity reaction and a grade 3 increase in alanine aminotransferase
